{"source": "patent US3974281A", "about": "“5-Methyl-1-phenyl-2-(1H)-pyridone compositions and methods of use” (priority 1974, dated 1976)", "key": {"[1]": {"tested_on": "rabbit leg muscle", "test": "Local toxicity of intramuscular injection into rabbit leg muscle", "type": "in vivo, New Zealand white rabbits", "experimental": "six healthy adult New Zealand white rabbits from a stock colony were injected into the large muscle mass of the leg with a 2.0 milliliter volume of 2.0% aqueous solution of AMR-69. The response was compared to the intramuscular injection of 2.0 ml. of an isotonic solution of sodium chloride. The animals were carefully observed for any evidence of discomfort for a period of three hours. […] Three hours after the injection, the animals were sacrificed and a careful dissection was made around the injection site of the: (1) skin, (2) subcutaneous fascia, and (3) muscle tissue for a gross examination under a low powder binocular mircroscope for any tissue reaction. […] Similarly, no tissue reaction was found following the intramuscular injection of the isotonic saline. One change noted in two rabbits reflected a hemorrhage from a vein which was cut as the hypodermic needle passed into the tissue. After the gross examination, the muscle masses were dissected out, removed and preserved in buffered formalin for histological examination."}, "[2]": {"tested_on": "rats with the hind limb inflammed", "test": "Analgesic activity, rats with inflamed hind limb (absence of squeal on flexion of inflamed ankle joint)", "type": "in vivo, rat", "details": "oral", "experimental": "the end-point for analgesic testing in rats with the hind limb inflammed is based on the absence of a squeal in response to flexion of the inflammed ankle joint (Method described by S. Margolin, Proceedings of an International Symposium on Non-Steroidal Anti-Inflammatory Drugs, Excerpta Medica International Congress, Series No. 82, 1964).\nWith AMR-93, the median effective dose was 325 ± 45 mg./kg."}, "[3]": {"test": "Absorption into the blood stream", "details": "in vivo"}}}
{"compound": "Cc1ccc(=O)n(-c2ccccc2)c1", "note": "[AMR-69, 5-methyl-1-phenyl-2-(1H)-pyridone]", "values": [{"measurement": "microscopic examination of injection sites versus isotonic saline", "setting": "[1]; 2.0 ml of 2.0% aqueous solution i.m.", "result": "no difference between those of the isotonic saline and the parenteral AMR-69"}, {"measurement": "histological examination of excised muscle", "setting": "[1]; 2.0 ml of 2.0% aqueous solution i.m., stained tissue sections", "result": "absence of any edema, erythema, chemosis, or necrosis"}, {"measurement": "tissue reaction at injection site, gross examination (skin, subcutaneous fascia, muscle)", "setting": "[1]; 2.0 ml of 2.0% aqueous solution i.m., three hours", "result": "No evidence of tissue reaction was observed"}, {"measurement": "discomfort after intramuscular injection", "setting": "[1]; 2.0 ml of 2.0% aqueous solution, three hours", "result": "No discomfort was evident"}, {"measurement": "ED50", "setting": "[2]; Rattus norvegicus, read-out: oral ED50 (median analgesic dose)", "result": "145 ± 26", "unit": "mg/kg"}, {"measurement": "analgesic effectiveness by the oral route as compared to aminopyrine", "setting": "[2]", "result": "as effective as aminopyrine"}, {"measurement": "onset of analgesic effect as compared to aminopyrine", "setting": "[2]", "result": "more rapid onset of analgesic effect"}, {"measurement": "absorption in the blood stream", "setting": "[3]", "result": "very rapidly absorbed in the blood stream"}]}
